Tests used:
[1] = tested on: β-lactamase-producing E. coli (TG1 phage antibody E. coli); assay: Growth of β-lactamase-producing E. coli on agar plates containing antibiotics; type: cell-based; design: E. coli growth score on agar plate: key to the marks not given beside the values; conditions: for Concentration toxic to β-lactamase-expressing E. coli / Concentration toxic to β-lactamase-expressing E. coli (toxic level): agar plates; for Concentration toxic to β-lactamase-expressing E. coli (toxic level): called IC50 in b119 and b167; for Antibiotic effect on β-lactamase-producing E. coli (in words): at the indicated concentrations of Table 2
Description: First, the ability of these candidate cephalosporins to kill the relevant β-lactamase-producing E. coli (TG1 phage antibody E. coli) was tested. […] This is presumably due to β-lactamase-catalyzed inactivation. […] Presumably, neither is inactivated by E. coli β-lactamase. […] More preferably, E. coli should be challenged with approximately 40-45 μM cefoxitin and 0.45-0.50 μM cefotaxime.
Next, the ability of the cephalosporins to kill the relevant β-lactamase-producing E. coli (TG1 phage antibody E. coli) was tested by growing the bacteria on agar plates containing the antibiotics. […] This is presumably due to β-lactamase-catalyzed inactivation. […] Presumably, neither is inactivated by E. coli β-lactamase.
A second experiment was performed in which E. coli was grown on agar plates containing varying amounts of cefotaxime.

[2] = Pseudo-first order NaOH hydrolysis rates by UV spectrometry; type: physicochemical; conditions: 1.0 mM antibiotic, 10.0 mM NaOH, 30.0° C.
Description: Further, before choosing either cefoxitin or cefotaxime as the labeling reactant, it was verified that their uncatalyzed reactivity rates were as facile as that of ampicillin. Model reactions were performed comparing the (NaOH) hydrolysis rates of cefoxitin, cefotaxime, and ampicillin. Hydrolysis and acylation are mechanistically identical. Their pseudo-first order hydrolysis rates as measured by UV spectrometry (1.0 mM antibiotic, 10.0 mM NaOH, 30.0° C.) were virtually the same: […]

TNFα = TNFα (Homo sapiens, UniProt P01375); assay: ECL-based assay of TNFα binding to its receptor after incubation with label (sugars, ampicillin)
Description: Experiments were conducted to determine whether catalytic antibodies can chemically modify and thereby inactivate disease-associated proteins. First, the reaction of reducing sugars with the disease-associated protein, tumor necrosis factor alpha (TNFα) was examined. In this reaction, the reducing sugar aldehyde covalently reacts with protein lysine sidechains. Chemical modification was detected using an ECL-based binding assay that measures the binding of TNFα to its receptor (an assay of biological function). […] Thus, chemical modification is a viable approach to inactivate proteins. Experiments were conducted to determine whether catalytic antibodies can inactivate disease-associated proteins. First, the reaction of reducing sugars with the disease-associated protein, tumor necrosis factor alpha (TNFα) was examined. In this reaction, the reducing sugar aldehyde covalently reacts with protein lysine sidechains. Chemical modification was detected using an ECL-based immunoassay that measures the binding of TNFα to its receptor. The assay is a sandwich format that uses antibodies directed against TNF and its receptor. One antibody is labeled with biotin, the other with an ECL label (TAG NHS Ester, IGEN International). When the TNF-TNF receptor complex is present, a sandwich complex comprising both a biotin and an ECL label is formed. This sandwich complex is captured on streptavidin-coated magnetic beads and measured using ECL detection. Alternatively, the TNF receptor may be directly biotinylated and the TNF target molecule labeled directly with the ECL label (or visa versa); in this alternative approach, no antibodies are necessary. […] Thus, chemical modification may be used to inactivate proteins. The uncatalyzed reaction between a β-lactam (ampicillin) and two proteins was also examined. Bovine serum albumin (BSA) and ampicillin were reacted overnight. […] Ampicillin was also reacted with TNFα overnight. […] Thus, this reaction is much more facile than the reaction of TNFα with reducing sugars.

[3] = first column, head printed 10 g/mL
[4] = second column, head printed 10 g/mL

Chain of TNFα (P01375 77-233 limits assumed): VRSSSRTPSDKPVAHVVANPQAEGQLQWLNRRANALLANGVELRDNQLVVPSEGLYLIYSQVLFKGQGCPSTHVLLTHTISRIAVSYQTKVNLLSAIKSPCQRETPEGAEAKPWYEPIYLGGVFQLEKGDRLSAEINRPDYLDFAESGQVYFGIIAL

CO/N=C(\C(=O)N[C@@H]1C(=O)N2C(C(=O)O)=C(COC(C)=O)CS[C@H]12)c1csc(N)n1 [Cefotaxime]
Concentration toxic to β-lactamase-expressing E. coli [1]: ~0.25 µM | Concentration toxic to β-lactamase-expressing E. coli (toxic level) [1]: ~0.12 µg/mL | Antibiotic effect on β-lactamase-producing E. coli (in words) [1]: excellent antibiotic effects | # of E. coli colonies ([1]; cefotaxime concentration 0.04 μg/mL): 225 | # of E. coli colonies ([1]; cefotaxime concentration 0.12 μg/mL): 5 | # of E. coli colonies ([1]; cefotaxime concentration 0.37 μg/mL): 0 | # of E. coli colonies ([1]; cefotaxime concentration 1.11 μg/mL): 0 | Pseudo-first order hydrolysis rate [2]: 0.0041 min⁻¹

OC[C@H]1O[C@@](CO)(O[C@H]2O[C@H](CO)[C@@H](O)[C@H](O)[C@H]2O)[C@@H](O)[C@@H]1O [sucrose]
Inactivation of TNFα receptor binding (in words) (TNFα; 2-week incubation period): did not inactivate TNFα

CC1(C)S[C@@H]2[C@H](NC(=O)[C@H](N)c3ccccc3)C(=O)N2[C@H]1C(=O)O [Ampicillin]
Antibiotic effect on β-lactamase-producing E. coli (in words) [1]: little or no antibiotic effect | E. coli growth score on agar plate [1, 3]: +++++ | E. coli growth score on agar plate [1, 4]: +++++ | Loss of TNFα biological activity according to the receptor binding assay (TNFα; reacted with TNFα overnight, uncatalyzed): 16% | Pseudo-first order hydrolysis rate [2]: 0.00564 min⁻¹

O=C(CO)[C@@H](O)[C@H](O)[C@H](O)CO [Fructose]
TNFα receptor binding following incubation with sugar (control buffer = 1.00, arbitrary) (TNFα; incubation time: 7 days): 0.79 | TNFα receptor binding following incubation with sugar (control buffer = 1.00, arbitrary) (TNFα; incubation time: 14 days): 0.67 | TNFα receptor binding following incubation with sugar (control buffer = 1.00, arbitrary) (TNFα; incubation time: None): 1.02

CO[C@@]1(NC(=O)Cc2cccs2)C(=O)N2C(C(=O)O)=C(COC(N)=O)CS[C@@H]21 [Cefoxitin]
Concentration toxic to β-lactamase-expressing E. coli [1]: ~22 µM | Concentration toxic to β-lactamase-expressing E. coli (toxic level) [1]: approximately 10 μg/mL | Antibiotic effect on β-lactamase-producing E. coli (in words) [1]: excellent antibiotic effects | Number of E. coli colonies on agar plate [1, 3]: 30 colonies | Pseudo-first order hydrolysis rate [2]: 0.00438 min⁻¹

CC(=O)OCC1=C(C(=O)O)N2C(=O)[C@@H](NC(=O)Cc3cccs3)[C@H]2SC1 [Cephalothin]
Antibiotic effect on β-lactamase-producing E. coli (in words) [1]: little or no antibiotic effect | E. coli growth score on agar plate [1, 3]: +++++ | E. coli growth score on agar plate [1, 4]: +++++

O=C[C@H](O)[C@@H](O)[C@@H](O)[C@H](O)CO [Galactose]
TNFα receptor binding following incubation with sugar (control buffer = 1.00, arbitrary) (TNFα; incubation time: 7 days): 0.89 | TNFα receptor binding following incubation with sugar (control buffer = 1.00, arbitrary) (TNFα; incubation time: 14 days): 0.82 | TNFα receptor binding following incubation with sugar (control buffer = 1.00, arbitrary) (TNFα; incubation time: None): 1.00

N[C@@H](C(=O)N[C@@H]1C(=O)N2C(C(=O)O)=C(Cl)CS[C@H]12)c1ccccc1 [Cefaclor]
Antibiotic effect on β-lactamase-producing E. coli (in words) [1]: little or no antibiotic effect | E. coli growth score on agar plate [1, 3]: +++++

From patent US20020182207A1, “Methods and compositions for modifying biologically active target molecules” (priority 2000, published 2002)
